US8481522B2, “Platinum-N-heterocyclic carbene derivatives, preparation thereof and therapeutic use thereof” (Sanofi, priority 2008, dated 2013)
Where “and” joins values, the source holds several entries; their conditions need not be identical. Equal entries are not always repeated.

Tests used:
Type in all cases: cell-based
CCRF-CEM cells = assay: Cytotoxicity, non-adherent CCRF-CEM cells, CellTiter-Glo luminescent cell viability; settings: CCRF-CEM human T leukaemia, 96 h incubation
Protocol: CCRF-CEM is a human T leukaemia (Cancer 1965, 18: 522-529). Oxaliplatin induces bifunctional lesions such as inter- and intra-DNA strand adducts on these CCRF-CEM cells (Mol Pharmacol 2000, 58: 920-927). […] This deficiency makes these cells particularly […] to alkylating agents and to platinum compounds.
For the non-adherent CCRF-CEM cells, the cell viability is measured by the luminescence test CellTiter-Glo® Luminescent Cell Viability Assay (Promega, Madison, Wis., USA). When it is added to the cells, the reagent produces a luminescence in the presence of the ATP of the living cells. The results are evaluated on a suitable reader (Envision, Perkin-Elmer Life Sciences, Boston, Mass., USA).
The CCRF-CEM cells are cultured in RPMI1640 medium containing 10% foetal calf serum, 2 mM L-glutamine, 100 units/ml of penicillin and […] of streptomycin, at 37° C. in a 95% air/5% CO2 atmosphere. The cells, at the exponential growth phase, are introduced into the wells of a 96-well plate at the density of 5×10^3 cells per well in an opaque plate (Greiner), in a volume of 150 μl. After incubating for 4 h at 37° C. in a 95% air/5% CO2 atmosphere, the compounds (concentrated 20-fold) are added in a volume of 8 μl. The compounds are prepared beforehand as a stock solution at the concentration of 10 mM in DMSO. A serial dilution is performed before the compounds are brought into contact with the cells. After incubating for 96 h at 37° C., 100 μl of agents (CellTiter-Glo) are added. After lysing the cells, the release of ATP is evaluated on the Envision reader.
(§1) The IC50 values are evaluated from curves presenting the percentage viability as a function of the concentration of the test compound, using the Biostat speed software. The IC50 is defined as the concentration of the compound which inhibits 50% of the cell proliferation or 50% of the cell viability.

H460 = assay: Cytotoxicity, adherent cells, 14C-thymidine incorporation (cell proliferation); settings: NCI-H460 human non-small cell lung cancer, 96 h treatment
Protocol: NCI-H460 is a human non-small cell lung cancer which has a mutation in the K-ras gene. This cell is sensitive to platinum compounds. In this cell line, cisplatin forms more adducts than oxaliplatin at the same concentration and yet the percentage repair is higher for oxaliplatin (DNA Repair 2006, 5: 219-225).
(§2) Cell proliferation is evaluated by the incorporation of ^14C-thymidine into the DNA of the cells. A549, CH1, CH1/DDP and H460 are cultured in Dulbecco's modified Eagle's medium (DMEM), SK-OV-3 in Mc-Coy medium, A2780 and A2780/DDP in RPMI1640 medium. All the media contain 10% foetal calf serum, 2 mM L-glutamine, 100 units/ml of penicillin and […] of streptomycin. The incubation is performed at 37° C. in a 95% air/5% CO2 atmosphere.
(§3) The cells, at the exponential growth phase, are introduced into the wells of a Cytostar 96-well plate, containing a scintillation fluid (Cytostar-T scintillating microplate, GE Healthcare Bio-Sciences AB, Uppsala, Sweden), at the density of 5×10^3 to 10^4 cells per well, in an amount of 180 μl per well. After incubating for 4 hours, the test compounds are added. The compounds are prepared beforehand as a stock solution at the concentration of 10 mM in DMSO. A serial dilution is performed before the compounds are brought into contact with the cells in a volume of 10 μl. After incubating for 72 hours at 37° C. in an atmosphere of 95% air/5% CO2, 0.1 μCi/well of ^14C-thymidine is added. 24 h later (total 96 h of treatment), the incorporation of ^14C-thymidine is recorded on a suitable scintillation counter (MicroBeta radioactivity counting, Perkin-Elmer Life Sciences, Boston, Mass., USA). The mean values obtained in the experimental groups are divided by the mean values obtained in the control groups in order to obtain percentages relative to the controls.
as §1

A2780/DDP = assay: as above; settings: A2780/DDP cisplatin-resistant human ovarian cancer, 96 h treatment
Text: (§4) A2780 and A2780/DDP are human ovarian cancer lines. […] The resistance of the A2780/DDP line is of the acquired type and involves various mechanisms: —reduction in the capacity for internalization of cisplatin, —replicative bypass (this is defined as the possibility for a replicative complex to synthesize DNA beyond the site of damage) (Cancer Res 1994; 54:3500-3505), —active detoxification by glutathione (Exp Oncol 2005; 27:191-195), —low activity of Caspase-3, enzymes involved in the process of programmed cell death (J Cancer Res Clin Oncol 2004; 130:423-428) and finally high nuclear efflux of platinum compounds (Oncol Rep 2004; 12:1365-1370).
as §2, §3, §1

A2780 = assay: as above; settings: A2780 human ovarian cancer, 96 h treatment
Text: as §4, §2, §3, §1

CH1/DDP = assay: as above; settings: CH1/DDP cisplatin-resistant human ovarian cancer, 96 h treatment
Text: (§5) CH1 and CH1 CisR are human ovarian cancers which are sensitive and resistant to cisplatin, respectively. The relative sensitivity of the CH1 cell may be at least partially attributed to a deficiency of a gene involved in repair processes and which is capable of removing the adducts (Chemico-Biological Interactions, 1999; 123:11-29). The CH1cisR cell is resistant to cisplatin through a poorly known mechanism of DNA repair, or increase in the tolerance of the cell to the damage caused by cisplatin to the DNA of this cell (Mol Pharmacol 2003; 63:933-944, Cancer Res 52: 3857-3864).
as §2, §3, §1

CH1 = assay: as above; settings: CH1 human ovarian cancer, 96 h treatment
Text: as §5, §2, §3, §1

SK-OV-3 = assay: as above; settings: SK-OV-3 human ovarian cancer, 96 h treatment, read-out: SKOV3 IC50
Protocol: SK-OV-3 is a human ovarian cancer. […] This cell has an intrinsic mechanism of resistance to cisplatin which is linked to high levels of glutathione (Br J Cancer 1998; 78:175-180). This cell line is commonly used to explore the effects of high levels of glutathione on the resistance to platinum compounds (Br J Cancer 1996, 74: 380-386).
as §2, §3, §1

| SMILES | IC50 (CCRF-CEM cells) | IC50 (H460) | IC50 (A2780/DDP) [nM] | IC50 (A2780) [nM] | IC50 (CH1/DDP) [nM] | IC50 (CH1) [nM] | IC50 (SK-OV-3) [nM] |
| --- | --- | --- | --- | --- | --- | --- | --- |
| Cn1c(=O)c2c(n(C)c1=O)n(C)[c](=[Pt-]([I])([I])[NH2+]C1CCCCC1)n2C [Example 9, trans-diiodo(N-cyclohexylamine)(1,3,7,9-tetramethylxanthin-8-ylidene)platinum(II)] | 2700 nM | 1600 nM | 1400 | 1800 | 2100 | 2200 | > 10000 |
| Cn1[c](=[Pt-]([I])([I])[NH2+]C2CC3CCC2C3)n(C)c2ccccc21 (single isomer, unassigned) [Example 17, trans-diiodo(N-exo(−)bicyclo[2.2.1]heptylamine)(1,3-dimethylbenzimidazol-2-ylidene)platinum(II)] | 1800 nM | 1100 nM | 2200 | 1100 |  |  | 5000 |
| N.N.[Cl][Pt][Cl] [Cisplatin, cisplatin, reference compound] | 3000 nM | 2400 nM | > 10000 | 9000 | > 10000 | 8000 | 6100 |
| COc1ccc(Cn2ccn(C)[c]2=[Pt]([I])([I])[NH]C2CCCCC2)cc1 [Example 10, trans-diiodo(N-cyclohexylamine)[1-methyl-3-(4-methoxybenzyl)-imidazol-2-ylidene]platinum(II)] | 1600 nM | 3800 nM | 2300 | 1600 |  |  | 5200 |
| Cn1ccn(CC2CCCCC2)[c]1=[Pt-]([I])([I])[NH2+]C1CCCCC1 [Example 3, trans-diiodo(N-cyclohexylamine)(1-methyl-3-cyclohexylmethylimidazol-2-ylidene)platinum(II)] | 2000 nM | 3800 nM | 1200 | 1000 | 2000 | 2300 | 5300 |
| Cn1ccn(Cc2ccccc2)[c]1=[Pt-]([I])([I])[NH2+]C1CCCCC1 [Example 5, trans-diiodo(N-cyclohexylamine)(1-methyl-3-benzylimidazol-2-ylidene)platinum(II)] | 1200 nM and 1400 nM | 1700 nM and 2700 nM | 1800 | 900 | 2400 | 2400 | 6500 |
| Cn1ccn(Cc2ccc(C(F)(F)F)cc2)[c]1=[Pt-]([I])([I])[NH2+]C1CCCCC1 [Example 11, trans-diiodo(N-cyclohexylamine)[1-methyl-3-(4-trifluoromethylbenzyl)imidazol-2-ylidene]platinum(II)] | 1000 nM | 1500 nM | 1100 | 800 |  |  | 2600 |
| Cn1[c](=[Pt-]([I])([I])[NH2+]C2CC3CCC2C3)n(C)c2ccccc21 (single isomer, unassigned) [Example 16, trans-diiodo(N-exo(+)bicyclo[2.2.1]heptylamine)(1,3-di-methylbenzimidazol-2-ylidene)platinum(II)] | 1400 nM | 4100 nM | 2700 | 1100 |  |  | 4100 |
| Cn1ccn(C)[c]1=[Pt-]([I])([I])[NH2+]Cc1ccc(C(F)(F)F)cc1 [Example 14, trans-diiodo[N-4-(trifluoromethyl)benzylamine](1,3-dimethylimidazol-2-ylidene)platinum(II)] | 1700 nM | 2600 nM |  |  |  |  |  |
| [I][Pt-2]([I])([NH2+]C1CCCCC1)[c]1n(Cc2ccccc2)cc[n+]1Cc1ccccc1 [Example 12, trans-diiodo(N-cyclohexylamine)[1,3-dibenzylimidazol-2-ylidene]-platinum(II)] | 1300 nM | 3400 nM | 1200 | 700 |  |  | 2800 |
| Cn1c(-c2ccccc2)c(-c2ccccc2)n(C)[c]1=[Pt]([I])([I])[NH]C1CCCCC1 [Example 22, trans-diiodo(N-cyclohexylamine)[1,3-dimethyl-4,5-diphenylimidazol-2-ylidene]platinum(II)] | 1200 nM | 1800 nM |  |  |  |  |  |
| Cn1cnn(C)[c]1=[Pt]([I])([I])[NH]C1CCCCC1 [Example 2, trans-diiodo(N-cyclohexylamine)(1,4-dimethyl-1,2,4-triazol-5-ylidene)platinum(II)] | 1500 nM | 2500 nM |  |  |  |  |  |
| Cn1ccn(Cc2ccc(C(F)(F)F)cc2)[c]1=[Pt-]([I])([I])[NH+]1CCOCC1 [Example 36, trans-diiodo(N-morpholine)(1-methyl-3-(4-trifluoromethylbenzyl)-imidazol-2-ylidene)platinum(II)] | 600 nM | 900 nM |  |  |  |  |  |
| O=C1[O][Pt]2([NH][C@@H]3CCCC[C@H]3[NH]2)[O]C1=O [Oxaliplatin, oxaliplatin, reference compound] | 900 nM | 4000 nM | 17300 | 3900 | 6200 | 4200 | > 10000 |
| Cn1[c](=[Pt-]([I])([I])[NH2+]C2CC3CCC2C3)n(C)c2ccccc21 (racemic) [Example 7, trans-diiodo(N-exo(+/−)bicyclo[2.2.1]heptylamine)(1,3-dimethyl-benzimidazol-2-ylidene)platinum(II)] | 1300 nM | 1900 nM | 1800 | 400 | 2400 | 2500 | 7000 |
